Values after ≈ are worked out from the molar mass of the structure shown. Read-outs that look alike come from different tables or passages of the source.

One series has as its system SH-SY5Y cells. In kind it is cell-based. Particulars: human. The protocol:
Accordingly, two time points were explored: short (90 min) and long (24 hrs). In general, longer times of exposure may sometime influence the chosen response to the test conditions/substances; it is therefore important in the starting exploratory protocols to explore an adequate time interval.
The cellular toxicity was evaluated by measuring the mitochondrial activity through the MTT assay (Marchesi N. et al., 2020).
Mitochondrial enzymatic activity was estimated by MTT [3-(4,5-dimethylthiazol-2-yl)-2,5-diphenyltetrazolium bromide] assay (Sigma-Aldrich). A cell suspension of 2×10^4 cells/mL SH-SY5Y cell line was seeded into 96-well plates.
Following each treatment of 90 minutes and 24 hours, 50 μL of MTT (concentration equal to 2.5 mg/mL) were added to each well. After incubation at 37° C. for 3 hours, the purple formazan crystals were formed. The formed crystals were solubilized in dimethylsulfoxide (DMSO; Sigma-Aldrich). Specifically, after removing the MTT from the wells, 100 μL of DMSO were added in order to lyse the cellular and mitochondrial membranes, and solubilize the formazan crystals. After 10 minutes, absorbance values were measured at 595 nm using a Synergy HT microplate reader (BioTek Instruments) and the results expressed as % with respect to control. […]

Series [1] can be described thus: Solubility of the test substances. In kind it is physicochemical.
In a further series the target is T1, TrkA receptor (Homo sapiens, UniProt P04629).
T1 construct: host or cells: SH-SY5Y human neuroblastoma cells
T1 sequence (P04629 33-796): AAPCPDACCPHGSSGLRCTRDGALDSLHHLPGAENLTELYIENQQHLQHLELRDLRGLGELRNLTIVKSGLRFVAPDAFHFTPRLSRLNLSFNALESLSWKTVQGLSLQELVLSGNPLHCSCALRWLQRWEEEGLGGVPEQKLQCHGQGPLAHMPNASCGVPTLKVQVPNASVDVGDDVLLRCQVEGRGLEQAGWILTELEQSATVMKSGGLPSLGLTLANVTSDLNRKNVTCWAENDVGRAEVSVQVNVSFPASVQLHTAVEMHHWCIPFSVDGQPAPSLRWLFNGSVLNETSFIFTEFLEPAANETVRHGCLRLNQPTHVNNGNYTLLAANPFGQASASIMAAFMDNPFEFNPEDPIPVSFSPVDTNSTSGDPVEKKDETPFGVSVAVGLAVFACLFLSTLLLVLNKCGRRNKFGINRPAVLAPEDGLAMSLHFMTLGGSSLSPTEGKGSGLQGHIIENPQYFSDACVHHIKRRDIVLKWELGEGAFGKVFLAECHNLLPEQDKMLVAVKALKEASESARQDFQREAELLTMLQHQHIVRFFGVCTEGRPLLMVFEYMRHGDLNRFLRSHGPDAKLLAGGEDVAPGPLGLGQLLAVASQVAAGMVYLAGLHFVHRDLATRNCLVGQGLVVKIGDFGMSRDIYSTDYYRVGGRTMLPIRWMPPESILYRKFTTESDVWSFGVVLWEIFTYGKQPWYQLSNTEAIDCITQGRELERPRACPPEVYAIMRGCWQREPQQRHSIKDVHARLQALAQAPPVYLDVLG
In words: Phospho-TrkA (Tyr674/675) ELISA: activation of TrkA receptor by NGF in SH-SY5Y cells. Particulars: for effect on basal activity in absence of NGF: FIG. 4. In kind it is cell-based. As to the method: The experiment is based on a commercially available ELISA assay evaluating the amount of phosphorylated TrkA (Pandre M K. et al., 2018) and used as indicated in the producer's protocol. The cell culture conditions were described in Marchesi N. et al., 2020.
All the experiments were performed under a laminar flow hood.
The phospho-TrkA (Tyr674/675) protein levels in SH-SY5Y cells were estimated with a specific ELISA kit (Cell Signaling, #7212C.), according to the manufacturer's instructions.
PathScan® Phospho-TrkA (Tyr674/675) Sandwich ELISA Kit is a solid phase sandwich enzyme-linked immunosorbent assay that detects […] levels of Phospho-TrkA (Tyr674/675) protein. A TrkA Mouse mAb #4614 has been coated onto the microwells. After incubation with cell lysates, both phospho- and nonphospho-TrkA proteins are captured by the coated antibody. Following extensive washing to remove any unbound antibody/reagent, Phospho-TrkA (Tyr674/675) Antibody #4610 is added to detect phospho-TrkA protein. Anti-rabbit IgG, HRP-linked Antibody #7074 is then used to recognize the bound detection antibody. HRP substrate, TMB (3,3′,5,5′-tetramethylbenzidine), is added to develop color. The magnitude of optical density is proportional to the quantity of Phospho-TrkA (Tyr674/675) protein.
The color development was stopped and the intensity of the color measured at 450 nm using a Synergy HT microplate reader (BioTek Instruments). The antibodies used in the kit were custom formulations specific for the kit.
(An ELISA detects its analyte on a solid surface through an enzyme-linked reagent.)

Where [2] appears, read: 1 mM, 24 hrs, FIG. 9, Dunnett's test.
Setting [3] is: 10 mM, 90 min, FIG. 4, Tukey's test.
The mark [4] stands for this setting: 10 mM, 24 hrs, FIG. 8, Dunnett's test.
The mark [5] stands for this setting: 10 mM, 24 hrs, FIG. 9, Dunnett's test.
The mark [6] stands for this setting: SH-SY5Y, read-out: inhibition of TrkA activation by NGF, 10 mM, 24 hrs exposure, FIG. 8.
Where [7] appears, read: 24 hrs exposure, no NGF, FIG. 8.
Setting [8] is: SH-SY5Y, read-out: inhibition of NGF (reduction of the response to NGF).
Where [9] appears, read: SH-SY5Y, read-out: inhibition of TrkA activation by NGF.

On to `O=C(O)CSCC(=O)NC1CCSC1=O` (racemic) [erdosteine, (2-[N-3-(2-oxotetrahydrothienyl)]acetamido)-thioglycolic acid, reference compound], for which the “decrease in mitochondrial activity” value in the series on SH-SY5Y cells (90 min, 20 mM) was found to be 16.3%. Further, the solubility – broadly, the concentration that dissolves in the medium under given conditions – at 20 min in series [1] (37 °C, aqueous buffer, MEM, warming 20 minutes at 37°) stood at 11 mg/mL (≈ 44.1 mM). For the same molecule, the “Statistically significant (NGF vs. substance + NGF)” value is “No” at TrkA receptor (0.1 mM, 24 h, FIG. 7, Tukey's test); “Yes” at TrkA receptor (0.5 mM, 24 h, FIG. 7, Tukey's test); “Yes” at TrkA receptor (1 mM, 24 h, FIG. 7, Tukey's test); “No” at TrkA receptor (setting [2]); “Yes” on TrkA receptor (5 mM, 24 h, FIG. 7, Tukey's test); “Yes” on TrkA receptor (10 mM, 90', FIG. 6, Tukey's test). Moreover, the “Statistically significant (NGF vs. substance + NGF)” value at TrkA receptor (setting [3]) is “No”; on TrkA receptor (10 mM, 24 h, FIG. 6, Tukey's test), “Yes”; on TrkA receptor (10 mM, 24 h, FIG. 7, Tukey's test), “Yes”; at TrkA receptor (setting [4]), “Yes”; on TrkA receptor (setting [5]), “Yes”. For the same molecule, the “inhibitory action on TrkA activation by NGF” value is listed as “ineffective” on TrkA receptor (0.1 mM, 24 hrs exposure, FIG. 7); “a trend which is appreciable but not strongly statistically significant” on TrkA receptor (0.5 mM, 24 hrs exposure, FIG. 7); “significant inhibitory action” at TrkA receptor (1.0 mM, 24 hrs exposure, FIG. 7). Also, on TrkA receptor (1 mM and higher (up to 10 mM), 24 hrs exposure, FIG. 7), the “inhibition of TrkA activation by NGF at plateau” value is given as “around 40%”. Besides, on TrkA receptor (90 min, no NGF), the “effect on basal activity in absence of NGF” value is reported as “do not modify”. Moreover, the IC50 (as a rule, the concentration needed to halve the response being measured) at TrkA receptor (24 hrs exposure, FIG. 9) was in the range of 500 to 1000 µM. Also, the inhibition at 10000 µM at TrkA receptor (SH-SY5Y, 10 mM, 24 hours exposure, FIG. 6, read-out: inhibition of TrkA phosphorylation) was 42.2%; at TrkA receptor (SH-SY5Y, read-out: inhibition of NGF (reduction of the response to NGF), 10 mM, 90 min pre-exposure, NGF 100 ng/ml, FIG. 4), 8.2%; on TrkA receptor (SH-SY5Y, read-out: inhibition of TrkA activation by NGF, 10 mM, 90 min exposure, FIG. 6), 13.9%; at TrkA receptor (setting [6]), 36%.

Consider `O=C(O)CSCC(=O)N[C@@H]1CCSC1=O` [Erdo R], for which, on TrkA receptor (10 mM, 24 hrs exposure, FIG. 8), the “inhibition of TrkA activation by NGF” value is listed as 30%. Moreover, the “Statistically significant (NGF vs. substance + NGF)” value at TrkA receptor (setting [4]) is “Yes”. Also, the “effect on the basal activity” value at TrkA receptor (setting [7]) is “no effect”.

For `O=C(O)CSCC(=O)N[C@H]1CCSC1=O` [Erdo S], the “Statistically significant (NGF vs. substance + NGF)” value is reported as “No” on TrkA receptor (1 nM, 24 hrs, FIG. 9, Dunnett's test); “Yes” on TrkA receptor (100 nM, 24 hrs, FIG. 9, Dunnett's test); “Yes” at TrkA receptor (1 uM, 24 hrs, FIG. 9, Dunnett's test); “Yes” on TrkA receptor (0.01 mM, 24 hrs, FIG. 9, Dunnett's test); “Yes” on TrkA receptor (0.05 mM, 24 hrs, FIG. 9, Dunnett's test); “Yes” at TrkA receptor (0.1 mM, 24 hrs, FIG. 9, Dunnett's test). Also, the “Statistically significant (NGF vs. substance + NGF)” value at TrkA receptor (setting [2]) is “No”; at TrkA receptor (5 mM, 24 hrs, FIG. 9, Dunnett's test), “Yes”; on TrkA receptor (setting [4]) it was “Yes”; on TrkA receptor (setting [5]), “Yes”. Besides, the “effect on TrkA activation by NGF” value on TrkA receptor (100 nM, 24 hrs, no change up to 10 mM, FIG. 9) was “already maximal”. The IC50 at TrkA receptor (24 hrs exposure, FIG. 9) was in the range of 0.001 to 0.1 µM. For the same molecule, the “effect on the basal activity” value on TrkA receptor (setting [7]) is recorded as “no effect”. Further, the inhibition at 10000 µM at TrkA receptor (setting [6]) is 41%.

`O=C(O)CSCC(=O)NC(CCS)C(=O)O` (stereo not shown) [Met-1]: in the series with SH-SY5Y cells (24 h, 10 mM), the “decrease of mitochondrial activity” value amounted to 17.5%. For the same molecule, the solubility in series [1] (water) was 164 mg/mL (≈ 613 mM). In addition, the “Statistically significant (NGF vs. substance + NGF)” value is “Yes” at TrkA receptor (setting [3]); “Yes” at TrkA receptor (20 mM, 90 min, FIG. 3, Tukey's test); “Yes” at TrkA receptor (20 mM, 90 min, FIG. 4, Tukey's test); “Yes” at TrkA receptor (40 mM, 90 min, FIG. 3, Tukey's test). Also, the “effect on basal pTrkA levels (substance alone)” value at TrkA receptor (20 and 40 mM, 90 min, no NGF, FIG. 3) is “did not alter”. For the same molecule, at TrkA receptor (90 min, no NGF), the “effect on basal activity in absence of NGF” value is “do not modify”. For the same molecule, on TrkA receptor (setting [8]), the inhibition at 10000 µM is 23%. Besides, the inhibition at 20000 µM at TrkA receptor (setting [8]) is 24.5%; at TrkA receptor (setting [9]), 34%. In addition, the inhibition at 40000 µM at TrkA receptor (setting [9]) is 52%.
